Assay results reported in PMC9106035, “Synthesis, X-ray Structure and Biological Studies of New Self-Assembled Cu(II) Complexes Derived from s-Triazine Schiff Base Ligand” (Molecules, 2022).

Tests used:
[1] = DPPH radical scavenging assay; type: biochemical; conditions: for IC50 (DPPH scavenging): antioxidant activity
Procedure: The studied Cu(II) complexes and the free ligands were assessed for their antioxidant activity levels using an α,α-diphenyl-β-picrylhydrazyl (DPPH) scavenging assay, and the results are given in Table 7. […] The results indicated better antioxidant activity for DMAT than for DMOHT, indicating the effect of the substituent at the phenyl moiety on the antioxidant activity level of the free ligand. […] On the other hand, the Cu(II) complexes have improved levels of antioxidant activity compared to the free ligands.
Method S3 DPPH Radical Scavenging Activity:
Freshly prepared (0.004 %w/v) methanol solution of 2,2-diphenyl-1-pi crylhydrazyl (DPPH) radical was prepared and stored at 10 °C in dark place. A methanolic solution of the test compound was prepared using the same procedure. A 40 uL aliquot of the methanol solution was added to 3mL of DPPH solution. Absorbance measurements were recorded immediately with a UV-visible spectrophotometer (Milton Roy, Spectronic 1201). The decrease in absorbance at 515 nm was determined continuously, with data being recorded at 1 min intervals until the absorbance stabilized (16 min). The absorbance of the DPPH radical without antioxidant (control) and the reference compound ascorbic acid were also measured.
All the determinations were performed in three replicates and averaged. The percentage inhibition (PI) of the DPPH radical was calculated according to the […]
PI = [{(AC- AT)/ AC} x 100] (1)
Where AC = Absorbance of the control at t = 0 min and AT = absorbance of the sample+DPPH at t = 16 min. The 50% inhibitory concentration (IC50), the concentration required t o inhibit DPPH radical by 50%, was estimated from graphic plots of the dose respons e curve.

[2] = system: normal human lung fibroblast MRC-5 cells; assay: Cytotoxic activity on normal cells, MTT viability assay; type: cell-based; conditions: for Inhibitory % / Viability %: MRC-5; for CC50: MRC-5 cells, 24 h, MTT
Procedure: In this regard, the selectivity index (SI) was calculated as the ratio of cytotoxic effect on the normal cell line to the cytotoxic effect on the cancer cell line.
(§1) Method S4 Evaluation of Cytotoxic activity
(§2) The cells were propagated in Dulbecco’s modified Eagle’s medium (DMEM) supplemented with 10% heat-inactivated fetal bovine serum, 1 % L-glutamine, HEPES buffer and 50µg/mL Gentamycin. All cells were maintained at 37 °C in a humidified atmosphere with 5% CO2 and were subcultured tw o times a week.
(§3) Cytotoxicity evaluation using viability assay
(§4) For cytotoxicity assay, the cells were seeded in 96-well plate at a cell concentration of 1×10^4 cells per well in 100µl of growth medium. Fresh medium containing different concentrations of the test sample was added after 24 h of seeding. Serial two-fold dilutions of the tested chemical compound were added to confluent cell monolayers dispensed into 96-well, flat-bottomed microtiter plates (Falcon, NJ, USA) using a multichannel pipette. The microtiter plates were incubated at 37 °C in a humidified incubator with 5% CO2 for a period of 24 h. Three wells were used for each concentration of the test sample. Control cells were incubated without test sample and with or without DMSO. The little percentage of DMSO present in the […]
(§5) cells for at 37°C, for 24 h, the viabl e cells yield was determined by the MTT test.
(§6) Briefly, the media was removed from the 96 well plate and replaced with 100 µL of fresh culture DMEM m edium without phenol red then 10 µL of the 12 mM MTT stock solution (5 mg of MTT in 1 mL of PBS) to each well including the untreated controls. The 96 well plates were then incubated at 37°C and 5% CO2 for 4 hours. An 85 µL aliquot of the media was removed from t he wells, and 50 µL of DMSO was added to each well and mixed thoroughly with the pipette and incubated at 37°C for 10 min. Then, the optical density was measured at 590 nm with the microplate reader (SunRise, TECAN, Inc, USA) to determine the number of viable cells and the percentage of viability was calculat ed as [(ODt/ODc)]x100% where ODt i s the mean optical density of wells treated with the tested s ample and ODc is the mean optical density of untreated cells. The relation between surviving cells and drug concentration is plotted to get the survival curve of each tumor cell line after treatment with the specified compound. The 50% inhibitory concentration (IC50), the concentration required to cause t oxic effects in 50% of intact cells, was estimated from graphic plots of the dose response curve for each conc. using Graphpad Prism software (San Diego, […]

[3] = system: lung carcinoma A-549 cell line; assay: Anticancer activity, MTT viability assay; type: cell-based; conditions: for Inhibitory % / Viability %: A-549; for SI = CC50/IC50: CC50 (MRC-5) / IC50 (A-549)
Procedure: The studied compounds were examined for their anticancer activity against the lung carcinoma A-549 cell line.
as §1, §2, §3, §4, §5, §6

[4] = sample conc. 15.0 µM, Table S13
[5] = sample conc. 29.9 µM, Table S13
[6] = sample conc. 60.0 µM, Table S13
[7] = sample conc. 120.0 µM, Table S13
[8] = sample conc. 239.9 µM, Table S13
[9] = sample conc. 479.8 µM, Table S13
[10] = sample conc. 959.6 µM, Table S13
[11] = sample conc. 120.0 µM, Table S8
[12] = sample conc. 239.9 µM, Table S8
[13] = sample conc. 479.8 µM, Table S8
[14] = sample conc. 959.6 µM, Table S8
[15] = sample conc. 14.9 µM, Table S14
[16] = sample conc. 29.8 µM, Table S14
[17] = sample conc. 59.6 µM, Table S14
[18] = sample conc. 119.3 µM, Table S14
[19] = sample conc. 238.6 µM, Table S14
[20] = sample conc. 477.1 µM, Table S14
[21] = sample conc. 954.2 µM, Table S14
[22] = sample conc. 119.3 µM, Table S9
[23] = sample conc. 238.6 µM, Table S9
[24] = sample conc. 477.1 µM, Table S9
[25] = sample conc. 954.2 µM, Table S9

CC(=NNc1nc(N2CCOCC2)nc(N2CCOCC2)n1)c1ccccc1[O-].CC(=O)[O-].[Cu+2] [Complex 2, [Cu(DMOT)(CH3COO)]]
DPPH Scavenging % ([1]; Conc. 2.5 μg/mL): 9.39%
DPPH Scavenging % ([1]; Conc. 5 μg/mL): 17.66%
DPPH Scavenging % ([1]; Conc. 10 μg/mL): 36.52%
DPPH Scavenging % ([1]; Conc. 20 μg/mL): 49.08%
DPPH Scavenging % ([1]; Conc. 40 μg/mL): 67.84%
DPPH Scavenging % ([1]; Conc. 80 μg/mL): 78.62%
DPPH Scavenging % ([1]; Conc. 160 μg/mL): 83.14%
DPPH Scavenging % ([1]; Conc. 320 μg/mL): 88.03%
DPPH Scavenging % ([1]; Conc. 640 μg/mL): 92.15%
DPPH Scavenging % ([1]; Conc. 1280 μg/mL): 94.54%
IC50 (DPPH scavenging) [1]: 20.93 ± 0.91 µg/mL
Inhibitory % ([2]; sample conc. 1.9 µM, Table S13): 0%
Viability % ([2]; sample conc. 1.9 µM, Table S13): 100%
Inhibitory % ([2]; sample conc. 3.8 µM, Table S13): 0%
Viability % ([2]; sample conc. 3.8 µM, Table S13): 100%
Inhibitory % ([2]; sample conc. 7.5 µM, Table S13): 1.29%
Viability % ([2]; sample conc. 7.5 µM, Table S13): 98.71%
Inhibitory % [2, 4]: 7.13%
Viability % [2, 4]: 92.87%
Inhibitory % [2, 5]: 13.76%
Viability % [2, 5]: 86.24%
Inhibitory % [2, 6]: 32.82%
Viability % [2, 6]: 67.18%
Inhibitory % [2, 7]: 57.65%
Viability % [2, 7]: 42.35%
Inhibitory % [2, 8]: 72.02%
Viability % [2, 8]: 27.98%
Inhibitory % [2, 9]: 84.79%
Viability % [2, 9]: 15.21%
Inhibitory % [2, 10]: 94.26%
Viability % [2, 10]: 5.74%
CC50 [2]: 101 µM
Inhibitory % ([3]; sample conc. 1.9 µM, Table S8): 0%
Viability % ([3]; sample conc. 1.9 µM, Table S8): 100%
Inhibitory % ([3]; sample conc. 3.8 µM, Table S8): 2.84%
Viability % ([3]; sample conc. 3.8 µM, Table S8): 97.16%
Inhibitory % ([3]; sample conc. 7.5 µM, Table S8): 10.59%
Viability % ([3]; sample conc. 7.5 µM, Table S8): 89.41%
Inhibitory % ([3]; sample conc. 15.0 µM, Table S8): 21.88%
Viability % ([3]; sample conc. 15.0 µM, Table S8): 78.12%
Inhibitory % ([3]; sample conc. 29.9 µM, Table S8): 40.57%
Viability % ([3]; sample conc. 29.9 µM, Table S8): 59.43%
Inhibitory % ([3]; sample conc. 60.0 µM, Table S8): 58.63%
Viability % ([3]; sample conc. 60.0 µM, Table S8): 41.37%
Inhibitory % [3, 11]: 71.3%
Viability % [3, 11]: 28.70%
Inhibitory % [3, 12]: 83.57%
Viability % [3, 12]: 16.43%
Inhibitory % [3, 13]: 92.15%
Viability % [3, 13]: 7.85%
Inhibitory % [3, 14]: 96.38%
Viability % [3, 14]: 3.62%
SI = CC50/IC50 [3]: 0.72

CC(=NNc1nc(N2CCOCC2)nc(N2CCOCC2)n1)c1ccccc1[O-].O=[N+]([O-])[O-].[Cu+2] [Complex 3, [Cu(DMOT)(NO3)]]
DPPH Scavenging % ([1]; Conc. 2.5 μg/mL): 11.46%
DPPH Scavenging % ([1]; Conc. 5 μg/mL): 18.73%
DPPH Scavenging % ([1]; Conc. 10 μg/mL): 32.95%
DPPH Scavenging % ([1]; Conc. 20 μg/mL): 51.32%
DPPH Scavenging % ([1]; Conc. 40 μg/mL): 68.9%
DPPH Scavenging % ([1]; Conc. 80 μg/mL): 81.47%
DPPH Scavenging % ([1]; Conc. 160 μg/mL): 85.92%
DPPH Scavenging % ([1]; Conc. 320 μg/mL): 90.81%
DPPH Scavenging % ([1]; Conc. 640 μg/mL): 94.29%
DPPH Scavenging % ([1]; Conc. 1280 μg/mL): 95.76%
IC50 (DPPH scavenging) [1]: 19.31 ± 0.73 µg/mL
Inhibitory % ([2]; sample conc. 1.9 µM, Table S14): 0%
Viability % ([2]; sample conc. 1.9 µM, Table S14): 100%
Inhibitory % ([2]; sample conc. 3.8 µM, Table S14): 0%
Viability % ([2]; sample conc. 3.8 µM, Table S14): 100%
Inhibitory % ([2]; sample conc. 7.4 µM, Table S14): 0%
Viability % ([2]; sample conc. 7.4 µM, Table S14): 100%
Inhibitory % [2, 15]: 1.37%
Viability % [2, 15]: 98.63%
Inhibitory % [2, 16]: 10.83%
Viability % [2, 16]: 89.17%
Inhibitory % [2, 17]: 23.08%
Viability % [2, 17]: 76.92%
Inhibitory % [2, 18]: 42.86%
Viability % [2, 18]: 57.14%
Inhibitory % [2, 19]: 58.72%
Viability % [2, 19]: 41.28%
Inhibitory % [2, 20]: 79.35%
Viability % [2, 20]: 20.65%
Inhibitory % [2, 21]: 92.46%
Viability % [2, 21]: 7.54%
CC50 [2]: 173 µM
Inhibitory % ([3]; sample conc. 1.9 µM, Table S9): 0%
Viability % ([3]; sample conc. 1.9 µM, Table S9): 100%
Inhibitory % ([3]; sample conc. 3.8 µM, Table S9): 1.37%
Viability % ([3]; sample conc. 3.8 µM, Table S9): 98.63%
Inhibitory % ([3]; sample conc. 7.4 µM, Table S9): 7.25%
Viability % ([3]; sample conc. 7.4 µM, Table S9): 92.75%
Inhibitory % ([3]; sample conc. 14.9 µM, Table S9): 19.54%
Viability % ([3]; sample conc. 14.9 µM, Table S9): 80.46%
Inhibitory % ([3]; sample conc. 29.8 µM, Table S9): 32.81%
Viability % ([3]; sample conc. 29.8 µM, Table S9): 67.19%
Inhibitory % ([3]; sample conc. 59.6 µM, Table S9): 50.72%
Viability % ([3]; sample conc. 59.6 µM, Table S9): 49.28%
Inhibitory % [3, 22]: 63.38%
Viability % [3, 22]: 36.62%
Inhibitory % [3, 23]: 76.06%
Viability % [3, 23]: 23.94%
Inhibitory % [3, 24]: 88.72%
Viability % [3, 24]: 11.28%
Inhibitory % [3, 25]: 95.13%
Viability % [3, 25]: 4.87%
IC50 ([3]; A-549 cells, 24 h, MTT): 58.3 µM
SI = CC50/IC50 [3]: 2.96
SI = CC50/IC50 ([3]; listed as 3): 2.97
